The text below walks through data of patent US20230091225A1, “Bifunctional chimeric heterocyclic compounds for targeted degradation of androgen receptors and use thereof” (HINOVA PHARMACEUTICALS INC., priority 2019, published 2023).

Where two headings read alike, the source gives them in different places.

The target of the assay is T1, androgen receptor (AR) (Homo sapiens, UniProt P10275).
T1 sequence (P10275 1-920): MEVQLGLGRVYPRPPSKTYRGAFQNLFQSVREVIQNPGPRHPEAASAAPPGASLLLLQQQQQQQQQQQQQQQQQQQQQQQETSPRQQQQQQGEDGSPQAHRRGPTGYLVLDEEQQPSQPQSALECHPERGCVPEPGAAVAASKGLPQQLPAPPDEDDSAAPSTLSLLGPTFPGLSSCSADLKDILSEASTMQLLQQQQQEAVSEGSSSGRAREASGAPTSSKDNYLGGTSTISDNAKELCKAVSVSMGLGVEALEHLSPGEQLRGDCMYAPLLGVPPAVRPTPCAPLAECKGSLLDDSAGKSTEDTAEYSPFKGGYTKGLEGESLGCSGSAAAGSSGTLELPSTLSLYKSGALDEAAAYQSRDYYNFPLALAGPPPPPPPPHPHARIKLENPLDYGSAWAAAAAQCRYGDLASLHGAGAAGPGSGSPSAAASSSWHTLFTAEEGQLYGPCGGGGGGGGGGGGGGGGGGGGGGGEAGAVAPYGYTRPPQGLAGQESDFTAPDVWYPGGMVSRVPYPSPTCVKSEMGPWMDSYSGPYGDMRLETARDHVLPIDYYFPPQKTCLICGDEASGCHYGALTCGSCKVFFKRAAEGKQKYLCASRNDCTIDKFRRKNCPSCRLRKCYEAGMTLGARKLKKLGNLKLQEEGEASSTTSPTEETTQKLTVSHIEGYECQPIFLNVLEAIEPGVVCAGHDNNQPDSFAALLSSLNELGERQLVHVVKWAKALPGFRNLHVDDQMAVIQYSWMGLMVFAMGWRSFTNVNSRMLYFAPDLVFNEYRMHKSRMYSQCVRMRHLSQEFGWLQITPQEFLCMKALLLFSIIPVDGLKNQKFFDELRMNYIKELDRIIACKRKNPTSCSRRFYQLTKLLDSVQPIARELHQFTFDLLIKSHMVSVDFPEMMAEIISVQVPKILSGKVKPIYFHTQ
The experiment in a line: Degradation of androgen receptor (AR) protein in VCaP cells by ELISA. Conditions: for Dmax: VCaP. It counts as cell-based.

Setting [1] is: AR degradation, VCaP cells, 16 h, ELISA, Table 3-1, read-out: DC50.
The mark [2] stands for this setting: AR degradation, VCaP cells, 16 h, ELISA, Table 3-1, read-out: Dmax (%).

In the case of `N#Cc1ccc(O[C@H]2CC[C@H](NC(=O)c3cnn([C@H]4CC[C@H](CN5CCC6(CC5)CN(c5ccc7c(c5)C(=O)N(C5CCC(=O)NC5=O)C7=O)C6)CC4)c3)CC2)cc1Cl` (stereo partly drawn) [Compound 245], the Dmax was 60 to 80%. Also, the DC50 under setting [1] lay within 10 to 100 nM.

On to `N#Cc1ccc(O[C@H]2CC[C@H](NC(=O)c3cnn([C@H]4CC[C@H](CN5CCC6(CC5)CN(c5cc7c(cc5F)C(=O)N(C5CCC(=O)NC5=O)C7=O)C6)CC4)c3)CC2)cc1Cl` (stereo partly drawn) [Compound 246], for which the maximal degradation (Dmax) was in the range of 60 to 80%. Moreover, the 50% degradation concentration (DC50) under setting [1] fell in the range of 10 to 100 nM.

Take `N#Cc1ccc(O[C@H]2CC[C@H](NC(=O)c3ccc(N4CCC(CN5CCC6(CC5)CN(c5ccc7c(=O)n(C8CCC(=O)NC8=O)cnc7c5)C6)CC4)nn3)CC2)cc1Cl` (stereo partly drawn) [Compound 247]: the half-maximal degradation concentration (DC50) under setting [1] was less than 10 nM. The Dmax under setting [2] was greater than 80%.

Take `N#Cc1ccc(O[C@H]2CC[C@H](NC(=O)c3ccc(N4CCC5(CCN(CC6CCN(c7cc8c(cc7F)C(=O)N(C7CCC(=O)NC7=O)C8=O)CC6)CC5)CC4)nn3)CC2)cc1Cl` (stereo partly drawn) [Compound 261]: the DC50 under setting [1] was less than 10 nM. The maximal degradation (Dmax) under setting [2] was greater than 80%.

In the case of `N#Cc1ccc(O[C@H]2CC[C@H](NC(=O)c3ccc(N4CCC5(CCN(CC6CCN(c7ccc8c(c7)C(=O)N(C7CCC(=O)NC7=O)C8=O)CC6)CC5)CC4)nn3)CC2)cc1Cl` (stereo partly drawn) [Compound 262, N-((1r,4r)-4-(3-chloro-4-cyanophenoxy)cyclohexyl)-6-(9-((1-(2-(2,6-dioxopiperidin-3-yl)-1,3-dioxoisoindolin-5-yl)piperidine-4-yl)methyl)-3,9-diazaspiro[5.5]undecan-3-yl)pyridazine-3-formamide], the 50% degradation concentration (DC50) under setting [1] was less than 10 nM. Further, the greatest degradation seen (Dmax) under setting [2] was greater than 80%.

Regarding `C[C@@H]1CN(C[C@@H]2[C@H]3CN(c4cc5c(cc4F)C(=O)N(C4CCC(=O)NC4=O)C5=O)C[C@@H]23)CCN1c1ccc(C(=O)N[C@H]2CC[C@H](Oc3ccc(C#N)c(Cl)c3)CC2)nn1` (stereo partly drawn) [Compound 263], the DC50 under setting [1] is less than 10 nM. Moreover, the maximal degradation (Dmax) under setting [2] was in the range of 60 to 80%.

Take `C[C@@H]1CN(C[C@@H]2[C@H]3CN(c4cc5c(cc4F)C(=O)N(C4CCC(=O)NC4=O)C5=O)C[C@@H]23)CCN1c1cnc(C(=O)N[C@H]2CC[C@H](Oc3ccc(C#N)c(Cl)c3)CC2)cn1` (stereo partly drawn) [Compound 264, N-((1r,4R)-4-(3-chloro-4-cyanophenoxy)cyclohexyl)-5-((2R)-4-((1R,5S,6s)-3-(2-(2,6-dioxopiperidin-3-yl)-6-fluoro-1,3-dioxoisoindolin-5-yl)-3-azabicyclo[3.1.0]n-hexane-6-yl)methyl-2-methylpiperazin-1-yl)pyrazine-2-carboxamide]: the DC50 under setting [1] is 10 to 100 nM. In addition, the Dmax under setting [2] fell in the range of 60 to 80%.

`C[C@@H]1CN(c2ccc(C(=O)N[C@H]3CC[C@H](Oc4ccc(C#N)c(Cl)c4)CC3)nn2)CCN1C[C@H]1[C@@H]2CN(c3cc4c(cc3F)C(=O)N(C3CCC(=O)NC3=O)C4=O)C[C@@H]21` (stereo partly drawn) [Compound 265]: the 50% degradation concentration (DC50) under setting [1] lay within 10 to 100 nM. For the same molecule, the Dmax under setting [2] lay in the range of 60 to 80%.

For the molecule `C[C@@H]1CN(c2cnc(C(=O)N[C@H]3CC[C@H](Oc4ccc(C#N)c(Cl)c4)CC3)cn2)CCN1C[C@H]1[C@@H]2CN(c3cc4c(cc3F)C(=O)N(C3CCC(=O)NC3=O)C4=O)C[C@@H]21` (stereo partly drawn) [Compound 266, N-((1r,4R)-4-(3-chloro-4-cyanophenoxy)cyclohexyl)-5-((3R)-4-((1R,5S,6s)-3-(2-(2,6-dioxopiperidin-3-yl)-6-fluoro-1,3-dioxoisoindolin-5-yl)-3-azabicyclo[3.1.0]n-hexane-6-yl)methyl-3-methylpiperazin-1-yl)pyrazine-2-carboxamide], the half-maximal degradation concentration (DC50) under setting [1] fell in the range of 10 to 100 nM. The Dmax under setting [2] is greater than 80%.

Regarding `N#Cc1ccc(O[C@H]2CC[C@H](NC(=O)c3cnc(N4CCC(CN5CCC6(CC5)CN(c5ccc7c(c5)C(=O)N(C5CCC(=O)NC5=O)C7=O)C6)CC4)nc3)CC2)cc1Cl` (stereo partly drawn) [Compound 267], the DC50 under setting [1] was less than 10 nM. The maximal degradation (Dmax) under setting [2] was greater than 80%.

Turning to `N#Cc1ccc(O[C@H]2CC[C@H](NC(=O)c3cnc(N4CCC(CN5CCC6(CC5)CN(c5cc7c(cc5F)C(=O)N(C5CCC(=O)NC5=O)C7=O)C6)CC4)nc3)CC2)cc1Cl` (stereo partly drawn) [Compound 268], the DC50 under setting [1] was less than 10 nM. In addition, the Dmax under setting [2] is greater than 80%.

For `N#Cc1ccc(O[C@H]2CC[C@H](NC(=O)c3ccc(N4CCC5(CC4)CC(N4CCN(c6cc7c(cc6F)C(=O)N(C6CCC(=O)NC6=O)C7=O)CC4)C5)nn3)CC2)cc1Cl` (stereo partly drawn) [Compound 269], the 50% degradation concentration (DC50) under setting [1] is less than 10 nM. For the same molecule, the Dmax under setting [2] was greater than 80%.

With `N#Cc1ccc(O[C@H]2CC[C@H](NC(=O)c3ccc(N4CCN(C5CC6(CCN(c7cc8c(cc7F)C(=O)N(C7CCC(=O)NC7=O)C8=O)CC6)C5)CC4)nn3)CC2)cc1Cl` (stereo partly drawn) [Compound 270, N-((1r,4r)-4-(3-chloro-4-cyanophenoxy)cyclohexyl)-6-(4-(7-(2-(2,6-dioxopiperidin-3-yl)-6-fluoro-13-dioxoisoindolin-5-yl) -7-azaspiro[3.5]nonan-2-yl)piperazin-1-yl)pyridazine-3-formamide], the DC50 under setting [1] was less than 10 nM. For the same molecule, under setting [2], the Dmax is greater than 80%.

`N#Cc1ccc(O[C@H]2CC[C@H](NC(=O)c3ccc(N4CCN(C5CC6(CCN(c7ccc8c(c7)C(=O)N(C7CCC(=O)NC7=O)C8=O)CC6)C5)CC4)nn3)CC2)cc1Cl` (stereo partly drawn) [Compound 271, N-((1r,4r)-4-(3-chloro-4-cyanophenoxy)cyclohexyl)-6-(4-(7-(2-(2,6-dioxopiperidin-3-yl)-1,3-dioxoisoindolin-5-yl)-7-azaspiro[3.5]nonan-2-yl)piperazin-1-yl)pyridazine-3-formamide]: under setting [1], the DC50 was less than 10 nM. For the same molecule, the maximal degradation (Dmax) under setting [2] was greater than 80%.

Take `N#Cc1ccc(O[C@H]2CC[C@H](NC(=O)c3cnc(N4CC5CN(CC6CCN(c7cc8c(cc7F)C(=O)N(C7CCC(=O)NC7=O)C8=O)CC6)CC5C4)nc3)CC2)cc1Cl` (stereo partly drawn) [Compound 272]: the half-maximal degradation concentration (DC50) under setting [1] is less than 10 nM. Also, the greatest degradation seen (Dmax) under setting [2] was greater than 80%.

Take `N#Cc1ccc(O[C@H]2CC[C@H](NC(=O)c3cnc(N4CC5(CCN(C6CCN(c7cc8c(cc7F)C(=O)N(C7CCC(=O)NC7=O)C8=O)CC6)CC5)C4)nc3)CC2)cc1Cl` (stereo partly drawn) [Compound 273, N-((1r,4r)-4-(3-chloro-4-cyanophenoxy)cyclohexyl)-2-(7-(1-(2-(2,6-dioxopiperidin-3-yl)-6-fluoro-1,3-dioxoisoindolin-5-yl)piperidine-4-yl)-2,7-diazaspiro[3.5]nonan-2-yl)pyrimidine-5-carboxamide]: the Dmax fell in the range of 60 to 80%. Under setting [1], the DC50 fell in the range of 10 to 100 nM.

Take `N#Cc1ccc(O[C@H]2CC[C@H](NC(=O)c3ccc(N4CCC(CN5CCC6(CC5)CN(c5ccc7c(c5)C(=O)N(C5CCC(=O)NC5=O)C7=O)C6)CC4)nn3)CC2)cc1Br` (stereo partly drawn) [Compound 274, N-((1r,4r)-4-(3-bromo-4-cyanophenoxy)cyclohexyl)-6-(4-((2-(2-(2-,2,6-dioxopiperidin-3-yl)-1,3-dioxoisoindolin-5-yl)-2,7-diazaspiro[3.5]nonan-7-yl)methyl)piperidin-1-yl)pyridazine-3-carboxamide]: the half-maximal degradation concentration (DC50) was less than 10 nM and the Dmax was greater than 80%.

Regarding `Cc1cc(O[C@H]2CC[C@H](NC(=O)c3ccc(N4CCC(CN5CCC6(CC5)CN(c5ccc7c(c5)C(=O)N(C5CCC(=O)NC5=O)C7=O)C6)CC4)nn3)CC2)ccc1C#N` (stereo partly drawn) [Compound 275], the 50% degradation concentration (DC50) was less than 10 nM and the Dmax was greater than 80%.
